What was measured:
MDA-MB-231 [1] = experiment: normalised viability (% of control), CellTiter-Blue; higher = more viable cells (about 100 = DMSO control); details: incubation time: 72 h
Description: (§1)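 DSRT, CellTiter-Blue viability, 72 h incubation. Signal is normalised to DMSO and benzethonium chloride controls. Value is the normalised response at dose 3.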

Hs578T [2] = experiment: as above; details: incubation time: 72 h
Description: as §1

MDA-MB-453 [3] = experiment: as above; details: incubation time: 72 h
Description: as §1

MDA-MB-468 [4] = experiment: as above; details: incubation time: 72 h
Description: as §1

MFM-223 = experiment: as above; details: incubation time: 72 h
Description: as §1

CAL-148 [5] = experiment: as above; details: incubation time: 72 h
Description: as §1

BT-549 [6] = experiment: as above; details: incubation time: 72 h
Description: as §1

DU-4475 [7] = experiment: as above; details: incubation time: 72 h
Description: as §1

CAL-120 [8] = experiment: as above; details: incubation time: 72 h
Description: as §1

MDA-MB-453 [9] = experiment: as above; details: incubation time: 72 h; remark: listed apart in the source
Description: (§2)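 DSRT, CellTiter-Blue viability, 72 h incubation. Signal is normalised to DMSO and benzethonium chloride controls. Value is the normalised response at dose 6.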

HDQ-P1 [10] = experiment: as above; details: incubation time: 72 h
Description: as §2

CAL-148 [11] = experiment: as above; details: incubation time: 72 h; remark: listed apart in the source
Description: as §2

CAL-85-1 [12] = experiment: as above; details: incubation time: 72 h
Description: as §2

CAL-51 [13] = experiment: as above; details: incubation time: 72 h
Description: as §2

DU-4475 [14] = experiment: as above; details: incubation time: 72 h; remark: listed apart in the source
Description: as §2

MDA-MB-453 [15] = experiment: as above; details: incubation time: 72 h; remark: listed apart in the source
Description: (§3)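 DSRT, CellTiter-Blue viability, 72 h incubation. Signal is normalised to DMSO and benzethonium chloride controls. Value is the normalised response at dose 7.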

HDQ-P1 [16] = experiment: as above; details: incubation time: 72 h; remark: listed apart in the source
Description: as §3

CAL-148 [17] = experiment: as above; details: incubation time: 72 h; remark: listed apart in the source
Description: as §3

CAL-85-1 [18] = experiment: as above; details: incubation time: 72 h; remark: listed apart in the source
Description: as §3

CAL-51 [19] = experiment: as above; details: incubation time: 72 h; remark: listed apart in the source
Description: as §3

DU-4475 [20] = experiment: as above; details: incubation time: 72 h; remark: listed apart in the source
Description: as §3

MDA-MB-453 [21] = details: 72 h
Procedure, shortened: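 Plates of 384 wells holding compound in 5 µl medium received breast cancer cell lines in 20 µl suspension and were incubated 72 h. CellTiter-Blue (2.5 µl, 2 h, 37 °C) was used for viability, read at 560/590 nm, and every plate was normalised to vehicle and a positive kill control and assessed by Z'-factor. The EC50 derives from a percent-inhibition dose-response curve fit censored at the highest concentration, leaving out rows whose drug sensitivity score was zero.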

MDA-MB-231 [22] = details: 72 h
Procedure, shortened: (§4)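 Breast cancer cell lines (20 µl suspension) were seeded into 384-well plates holding compound at 5 concentrations in 10-fold steps over a compound-specific 10,000-fold range, then incubated 72 h. Cell death was read first by CellTox Green fluorescence (485/520 nm), then viability by CellTiter-Glo luminescence after 10 min at room temperature. Each plate was normalised to 0.1 % DMSO and a positive kill control. EC50 was fitted from the dose-response curves and censored at the top concentration.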

Hs578T [23] = details: 72 h
Procedure, shortened: as §4

MDA-MB-436 = details: 72 h
Procedure, shortened: as §4

SK-BR-3 = details: 72 h
Procedure, shortened: as §4

MDA-MB-468 [24] = details: 72 h
Procedure, shortened: as §4

HCC1937 = details: 72 h
Procedure, shortened: as §4

BT-549 [25] = details: 72 h
Procedure, shortened: as §4

CAL-85-1 [26] = details: 72 h
Procedure, shortened: as §4

CAL-51 [27] = details: 72 h
Procedure, shortened: as §4

MCF-10A = details: 72 h
Procedure, shortened: as §4

CAL-120 [28] = details: 72 h
Procedure, shortened: as §4

BT-474 = details: 72 h
Procedure, shortened: as §4

MDA-MB-453 [29] = details: 72 h; remark: listed apart in the source
Procedure, shortened: as §4

CN(C)CCN1C(=O)c2cccc3cc(N)cc(c23)C1=O [Amonafide]
normalised viability (MDA-MB-231 [1]; 100 nM): 88% | normalised viability (Hs578T [2]; 100 nM): 84.8% | normalised viability (MDA-MB-453 [3]; 10 nM): 94.1% | normalised viability (MDA-MB-468 [4]; 100 nM): 113% | normalised viability (MFM-223; 100 nM): 87.5% | normalised viability (CAL-148 [5]; 10 nM): 85.2% | normalised viability (BT-549 [6]; 100 nM): 94.9% | normalised viability (DU-4475 [7]; 10 nM): 95.8% | normalised viability (CAL-120 [8]; 100 nM): 95.4% | normalised viability (MDA-MB-453 [9]; 300 nM): 92.5% | normalised viability (HDQ-P1 [10]; 300 nM): 67.5% | normalised viability (CAL-148 [11]; 300 nM): 89.8% | normalised viability (CAL-85-1 [12]; 300 nM): 91.7% | normalised viability (CAL-51 [13]; 300 nM): 109% | normalised viability (DU-4475 [14]; 300 nM): 92.3% | normalised viability (MDA-MB-453 [15]; 1000 nM): 81.7% | normalised viability (HDQ-P1 [16]; 1000 nM): 93.8% | normalised viability (CAL-148 [17]; 1000 nM): 74.5% | normalised viability (CAL-85-1 [18]; 1000 nM): 84% | normalised viability (CAL-51 [19]; 1000 nM): 99.1% | normalised viability (DU-4475 [20]; 1000 nM): 86.8% | EC50, CellTiter-Blue viability (MDA-MB-453 [21]): 4230 nM | EC50, CellTiter-Glo (MDA-MB-231 [22]): 2840 nM | EC50, CellTiter-Glo (Hs578T [23]): 1920 nM | EC50, CellTiter-Glo (MDA-MB-436): 7370 nM | EC50, CellTiter-Glo (SK-BR-3): 5430 nM | EC50, CellTiter-Glo (MDA-MB-468 [24]): 7960 nM | EC50, CellTiter-Glo (HCC1937): > 10000 nM | EC50, CellTiter-Glo (BT-549 [25]): 3270 nM | EC50, CellTiter-Glo (CAL-85-1 [26]): 9240 nM | EC50, CellTiter-Glo (CAL-51 [27]): 5570 nM | EC50, CellTiter-Glo (MCF-10A): 8420 nM | EC50, CellTiter-Glo (CAL-120 [28]): 2700 nM | EC50, CellTiter-Glo (BT-474): 1660 nM

O=C1NC(=O)[C@@H](c2cn3c4c(cccc24)CCC3)[C@@H]1c1c[nH]c2ccccc12 [Tivantinib]
normalised viability (MDA-MB-231 [1]; 10 nM): 116% | normalised viability (Hs578T [2]; 10 nM): 86.5% | normalised viability (MDA-MB-453 [3]; 1 nM): 108% | normalised viability (MDA-MB-468 [4]; 10 nM): 104% | normalised viability (MFM-223; 10 nM): 105% | normalised viability (CAL-148 [5]; 1 nM): 107% | normalised viability (BT-549 [6]; 10 nM): 111% | normalised viability (DU-4475 [7]; 1 nM): 97.8% | normalised viability (CAL-120 [8]; 10 nM): 90.8% | normalised viability (MDA-MB-453 [9]; 30 nM): 107% | normalised viability (HDQ-P1 [10]; 30 nM): 55.3% | normalised viability (CAL-148 [11]; 30 nM): 104% | normalised viability (CAL-85-1 [12]; 30 nM): 95.8% | normalised viability (CAL-51 [13]; 30 nM): 104% | normalised viability (DU-4475 [14]; 30 nM): 87.3% | normalised viability (MDA-MB-453 [15]; 100 nM): 78.1% | normalised viability (HDQ-P1 [16]; 100 nM): 106% | normalised viability (CAL-148 [17]; 100 nM): 112% | normalised viability (CAL-85-1 [18]; 100 nM): 77.2% | normalised viability (CAL-51 [19]; 100 nM): 104% | normalised viability (DU-4475 [20]; 100 nM): 109% | EC50, CellTiter-Blue viability (MDA-MB-453 [21]): 169 nM | EC50, CellTiter-Glo (MDA-MB-231 [22]): 554 nM | EC50, CellTiter-Glo (Hs578T [23]): 519 nM | EC50, CellTiter-Glo (MDA-MB-436): 391 nM | EC50, CellTiter-Glo (MDA-MB-453 [29]): 552 nM | EC50, CellTiter-Glo (SK-BR-3): 387 nM | EC50, CellTiter-Glo (MDA-MB-468 [24]): 613 nM | EC50, CellTiter-Glo (BT-549 [25]): 639 nM | EC50, CellTiter-Glo (CAL-85-1 [26]): 528 nM | EC50, CellTiter-Glo (CAL-51 [27]): 744 nM | EC50, CellTiter-Glo (MCF-10A): 318 nM | EC50, CellTiter-Glo (CAL-120 [28]): 991 nM | EC50, CellTiter-Glo (BT-474): > 1000 nM

COc1ccc(-c2ccc3c(N4CCOC[C@@H]4C)nc(N4CCOC[C@@H]4C)nc3n2)cc1CO [AZD8055]
normalised viability (MDA-MB-231 [1]; 100 nM): 50% | normalised viability (Hs578T [2]; 100 nM): 33.7% | normalised viability (MDA-MB-453 [3]; 10 nM): 80.3% | normalised viability (MDA-MB-468 [4]; 100 nM): 70% | normalised viability (MFM-223; 100 nM): 26.6% | normalised viability (CAL-148 [5]; 10 nM): 80.9% | normalised viability (BT-549 [6]; 100 nM): 44.3% | normalised viability (DU-4475 [7]; 10 nM): 102% | normalised viability (CAL-120 [8]; 100 nM): 32.5% | normalised viability (MDA-MB-453 [9]; 300 nM): 15.7% | normalised viability (HDQ-P1 [10]; 300 nM): 26.9% | normalised viability (CAL-148 [11]; 300 nM): 10.4% | normalised viability (CAL-85-1 [12]; 300 nM): 28.8% | normalised viability (CAL-51 [13]; 300 nM): 16.9% | normalised viability (DU-4475 [14]; 300 nM): 29.8% | normalised viability (MDA-MB-453 [15]; 1000 nM): 14.4% | normalised viability (HDQ-P1 [16]; 1000 nM): 27.2% | normalised viability (CAL-148 [17]; 1000 nM): 5.6% | normalised viability (CAL-85-1 [18]; 1000 nM): 23.8% | normalised viability (CAL-51 [19]; 1000 nM): 10.8% | normalised viability (DU-4475 [20]; 1000 nM): 15.2% | EC50, CellTiter-Blue viability (MDA-MB-453 [21]): 17.1 nM | EC50, CellTiter-Glo (MDA-MB-231 [22]): 73.8 nM | EC50, CellTiter-Glo (Hs578T [23]): 57.5 nM | EC50, CellTiter-Glo (MDA-MB-436): 11.6 nM | EC50, CellTiter-Glo (MDA-MB-453 [29]): 24.6 nM | EC50, CellTiter-Glo (SK-BR-3): 7.23 nM | EC50, CellTiter-Glo (MDA-MB-468 [24]): 43.3 nM | EC50, CellTiter-Glo (HCC1937): 100 nM | EC50, CellTiter-Glo (BT-549 [25]): 30.8 nM | EC50, CellTiter-Glo (CAL-85-1 [26]): 31.8 nM | EC50, CellTiter-Glo (CAL-51 [27]): 45.4 nM | EC50, CellTiter-Glo (MCF-10A): 61 nM | EC50, CellTiter-Glo (CAL-120 [28]): 37.5 nM | EC50, CellTiter-Glo (BT-474): 121 nM

From the supplement of paper PMC4862054
